In series [1] the target is T1, relaxin family peptide receptor 1 (RXFP1) (Homo sapiens, UniProt Q9HBX9).
T1 construct: expressed in transfected cells; host or cells: HEK (human embryonic kidney) cells stably expressing RXFP1, with pCRE beta-galactosidase reporter
T1 sequence (Q9HBX9 1-757): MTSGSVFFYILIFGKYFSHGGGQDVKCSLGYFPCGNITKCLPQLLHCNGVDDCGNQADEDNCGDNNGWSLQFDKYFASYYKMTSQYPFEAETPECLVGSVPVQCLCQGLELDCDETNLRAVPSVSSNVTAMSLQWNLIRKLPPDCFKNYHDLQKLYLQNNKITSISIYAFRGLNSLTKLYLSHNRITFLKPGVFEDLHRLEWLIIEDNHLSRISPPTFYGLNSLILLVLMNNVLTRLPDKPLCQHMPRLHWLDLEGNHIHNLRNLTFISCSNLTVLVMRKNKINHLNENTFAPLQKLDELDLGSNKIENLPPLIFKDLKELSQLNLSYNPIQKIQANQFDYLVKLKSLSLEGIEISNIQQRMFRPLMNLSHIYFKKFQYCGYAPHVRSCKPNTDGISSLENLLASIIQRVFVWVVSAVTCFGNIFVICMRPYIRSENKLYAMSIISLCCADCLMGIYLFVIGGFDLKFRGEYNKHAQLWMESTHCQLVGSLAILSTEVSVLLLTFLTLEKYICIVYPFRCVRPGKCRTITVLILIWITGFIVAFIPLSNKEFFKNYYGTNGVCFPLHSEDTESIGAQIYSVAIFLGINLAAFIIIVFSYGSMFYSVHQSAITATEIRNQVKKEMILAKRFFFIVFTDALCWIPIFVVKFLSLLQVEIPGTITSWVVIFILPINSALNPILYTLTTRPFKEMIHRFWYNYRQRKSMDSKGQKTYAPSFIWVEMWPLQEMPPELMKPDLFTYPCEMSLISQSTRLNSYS
Briefly: HEK-RXFP1 cAMP reporter gene assay. Type of series: cell-based. The protocol: HEK-RXFP1 cAMP Reporter Gene Assay
B7-33 activity at RXFP1 was assessed using a cAMP reporter gene assay as previously described (Scott et al. J. Biol. Chem. 2006, 281:34942-3495) with slight modification. PLGA B7-33 well plate coatings, and peptide controls in the absence of PLGA (dried peptide), were compared to solubilized B7-33 solution standards ([…]) and H2 relaxin (10 nM). Wells were seeded (25,000 cells per well, 100 μL) with dispersed HEK-RXFP1-pCRE reporter cells and incubated for 6 hours. Cells were then lysed and the reporter gene stimulated β-galactosidase activity was measured using a colorimetric substrate to evaluate the relative cAMP responses. Ligand-induced cAMP stimulation was expressed as a % of maximal response to H2 relaxin. Each data point was measured in triplicate and each experiment conducted independently at least three separate times.
A general note: Reporter assays use an easily measured gene product as a stand-in for the process of interest.

Series [2] has as its target relaxin family peptide receptor 1 (RXFP1), stably expressed on human embryonic kidney cells (HEK-RXFP1) (UniProt Q9HBX9). Briefly: cell-based or functional assay.
The conditions of series [3]: cited from earlier work.

pEC50: −log10 of the molar value. No end group written: not given here.

As for VIKLSGRELVRAQIAISGMSTWSKRSL-NH2 [B7-33], the “retained activity against the RXFP1 receptor after drying/oxidation” value in series [1] (HEK-RXFP1 cell assay (FIG. 2), oxidized species of B7-33 observed by MALDI) was “retains activity against the RXFP1 receptor”. Also, the pEC50 in series [1] (cAMP reporter gene (β-galactosidase), HEK-RXFP1 cells, 6 hours incubation) was 6.00.

In series [2], “B7-33 peptide (single B chain peptide analogue of H2 relaxin)” registered an EC50, cAMP reporter gene assay (beta-galactosidase, colorimetric) in HEK-RXFP1 cells; B7-33 peptide solution control of 1 µM and an EC50, cAMP reporter gene assay (beta-galactosidase, colorimetric) in HEK-RXFP1 cells; PLGA-free dried peptide control of 1 µM.

On to recombinant human relaxin 2, for which, in series [3], the in vivo half-life was 40 min.

For `CC(C)Oc1ccccc1C(=O)Nc1ccccc1C(=O)Nc1cccc(S(=O)(=O)C(F)(F)F)c1` [ML290], the in vivo half-life result in series [3] is “approximately 8 hours”.

As a reminder, the pEC50 is −log10 of the EC50, conventionally taken in molar units. Low readings indicate a high EC50, high ones a low EC50.
